Measurements: article doi:10.1101/2025.10.05.680433v1 (biorxiv, 2025)

How the values were obtained:
Assay in all cases: ITC
Assay type in all cases: binding
[1] = biological target: IGP1^ECD (Arabidopsis thaliana, UniProt F4I3K3); details: 10 mM Bis-Tris pH 6.0, 100 mM NaCl, 25 °C; LRR3-5 groove; 1:1 complex in crystal
[2] = biological target: IGP1^ECD (Arabidopsis thaliana, UniProt F4I3K3, W220A); details: 10 mM Bis-Tris pH 6.0, 100 mM NaCl, 25 °C
[3] = biological target: IGP1^ECD (Arabidopsis thaliana, UniProt F4I3K3, C591A/C592A); details: 10 mM Bis-Tris pH 6.0, 100 mM NaCl, 25 °C
[4] = biological target: IGP1^ECD (Arabidopsis thaliana, UniProt F4I3K3, C591D/C592D); details: 10 mM Bis-Tris pH 6.0, 100 mM NaCl, 25 °C

Row | Kd [1] [µM] | Kd [2] [µM] | Kd [3] [µM] | Kd [4] [µM] | Structure (SMILES)
1 | ~1.61 |  |  |  | OC[C@H]1O[C@@H](O[C@H]2[C@H](O)[C@@H](O)[C@H](O[C@H]3[C@H](O)[C@@H](O)C(O)O[C@@H]3CO)O[C@@H]2CO)[C@H](O)[C@@H](O)[C@@H]1O (stereo partly shown) [CEL3, cellotriose]
2 |  | ~18.6 | ~2.25 | ~17.9 | OC[C@H]1O[C@@H](O[C@H]2[C@H](O)[C@@H](O)[C@H](O[C@H]3[C@H](O)[C@@H](O)[C@H](O[C@H]4[C@H](O)[C@@H](O)C(O)O[C@@H]4CO)O[C@@H]3CO)O[C@@H]2CO)[C@H](O)[C@@H](O)[C@@H]1O (stereo partly shown) [CEL4, cellotetraose]
